Results: patent US20210169837A1, “COMPOSITION FOR REDUCING NEW-ONSET DIABETES” (MOCHIDA PHARMACEUTICAL CO., LTD., priority 2012, published 2021)

What was measured:
[1] = test system: Human fetal rhabdomyosarcoma cell line (RD cell, ATCC); assay: 2-3H-deoxyglucose uptake by differentiated skeletal muscle cells; format: cell-based; conditions: for Uptake of radioactivity (2-3H-deoxyglucose) per 1 μg of protein: statin = 30 μM simvastatin, EPA = 50 μM sodium eicosapentate
Experimental: (1) Human fetal rhabdomyosarcoma cell line (RD cell, ATCC) was inoculated in 24 well plate and cultured in a growth medium (10% fetal bovine serum (FCS), Dulbecco's modified Eagle medium (DMEM), low glucose, 1% nonessential amino acid) to confluency. (2) The cells were then cultivated in differentiation medium (2% horse serum (HS), Dulbecco's modified Eagle medium (DMEM), low glucose, 1% nonessential amino acid) for 3 to 5 days for differentiation into muscle cell.
(3) After the incubation, the medium was removed by aspiration, and the cells were incubated in an uptake buffer (140 mM NaCl, 5 mM KCl, 2.5 mM MgSO4, 20 mM HEPES, 1 mM CaCl2, pH=7.4) supplemented with 10 μM of 2-3H-deoxyglucose at 37° C. for 12 minutes. (4) After the incubation, the cells were washed 4 times with cold stop solution (PBS(−)supplemented with 10 mM glucose).
The PBS(−) contained 0.2 g of NaH2PO4.2H2O, 3.225 g of Na2HPO4.12H2O, and 8 g of NaCl in 1 L, and the pH was at 7.2 to 7.4.
(5) After the washing, 500 μL/well of aqueous solution of 0.4N sodium hydroxide was added, and the cells were lyzed by heating to 56° for 20 minutes. (6) 300 μL of the well content (cell lysate) was mixed with 4 mL of Atomlight (manufactured by PerkinElmer), and ^3H count was measured with a liquid scintillation counter. The well content (cell lysate) was also measured for its protein concentration to calculate the ^3H count per 1 μg of the protein.
FIG. 1 is the graph showing the uptake of radioactivity (y axis) in relation to the incubation time (x axis) for each group.

[2] = test system: aged people of at least 66 years old administered with statin; conditions: compared to the case of pravastatin; cited from earlier work

Compound: CCC(C)(C)C(=O)O[C@H]1C[C@@H](C)C=C2C=C[C@H](C)[C@H](CC[C@@H]3C[C@@H](O)CC(=O)O3)[C@H]21 [Statin, simvastatin]
- rate of decrease of radioactivity uptake ([1]; 48 hr of incubation, vs control group, 30 μM simvastatin (with or without 50 μM EPA)): about 73%
- Uptake of radioactivity (2-3H-deoxyglucose) per 1 μg of protein ([1]; incubation time 1 hr): 563 dpm/μg protein
- Uptake of radioactivity (2-3H-deoxyglucose) per 1 μg of protein ([1]; incubation time 6 hr): 489 dpm/μg protein
- Uptake of radioactivity (2-3H-deoxyglucose) per 1 μg of protein ([1]; incubation time 24 hr): 343 dpm/μg protein
- Uptake of radioactivity (2-3H-deoxyglucose) per 1 μg of protein ([1]; incubation time 48 hr): 170 dpm/μg protein

Compound: CC(C)c1c(C(=O)Nc2ccccc2)c(-c2ccccc2)c(-c2ccc(F)cc2)n1CC[C@@H](O)C[C@@H](O)CC(=O)O [atorvastatin]
- risk of the incidence of the diabetes compared to pravastatin [2]: significantly increased

Compound: CC[C@H](C)C(=O)O[C@H]1C[C@@H](C)C=C2C=C[C@H](C)[C@H](CC[C@@H]3C[C@@H](O)CC(=O)O3)[C@H]21 [lovastatin]
- risk of the incidence of the diabetes compared to pravastatin [2]: no significant difference

Compound: CC(C)c1nc(N(C)S(C)(=O)=O)nc(-c2ccc(F)cc2)c1/C=C/[C@@H](O)C[C@@H](O)CC(=O)O [rosuvastatin]
- risk of the incidence of the diabetes compared to pravastatin [2]: significantly increased
